Measurements as given in PMC3404088, “Development of a Small D-Enantiomeric Alzheimer’s Amyloid-β Binding Peptide Ligand for Future In Vivo Imaging Applications” (PLoS ONE, 2012).

Tests used:
Aβ1–42 fibrils [1] = target: T1, Aβ1–42 fibrils (Homo sapiens, UniProt P05067); experiment: ELISA, compound binding to Aβ1–42 fibrils; settings: for binding value, binding Aβ1–42 fibrils: optical density after pNPP incubation
T1 construct: Aβ1–42 was dissolved in hexafluoroisopropanol (HFIP)
Method: (§1) Aβ1–42 peptide film was prepared from lyophilized powder (Bachem). The powder was reconstituted in HFIP to a final concentration of 1 mM, sonicated for 15 min at room temperature (RT), agitated overnight (ON), and aliquoted into non-siliconized microcentrifuge tubes (12 µl corresponding to 55 µg). The HFIP was evaporated under a stream of argon. The resulting peptide film was vacuum dried for 10 min and stored at -80°C. For direct use as peptide film, an aliquot of Aβ1–42 peptide film was reconstituted with 0.54% dimethylsulphoxide (DMSO) in phosphate buffered saline (PBS) to obtain a final concentration of 10 µg/ml and then used for the ELISA as described below. To prepare fibrils, 55 µg aliquot of peptide film was dissolved in 55 µl of 50 mM Tris-HCl, pH 7.4 and incubated at 37°C for five days. Next, the sample was centrifuged (10’000 rpm for 5 min) and the pellet was diluted in 50 mM Tris-HCl, pH 7.4.
(§2) Aβ1–42 peptide preparations were diluted in 0.05 M bicarbonate-carbonate buffer pH 9.6, to the final concentration of 10 µg/ml and coated onto ELISA plates (MaxiSorp, Nunc). After blocking (PBS; 0.05% Tween; 1% BSA), plates were incubated with 2- or 3-fold dilutions of D-compounds (starting concentration: 10 µg/ml) and incubated for 2 h at 37°C. Plates were then washed and incubated for 2 h at 37°C with the detection antibody Rabbit-a-fluorescein isothiocyanate-AP (Sigma; 1∶10’000 dilution) followed by the incubation for 2.5 h at room temperature (RT) with 1 mg/ml of phosphatase substrate (pNPP, Sigma). The absorbance signal was read at 405 nm wavelength using a Tecan plate reader (Tecan Group Lt, Männedorf, Switzerland).
(§3) ELISA plates (MaxiSorp, Nunc) were coated with anti-Aβ antibody 6E10 (Covance) at a concentration of 5 µg/ml. Either monomeric Aβ1–42 peptide film (mainly monomeric) or Aβ1–42 fibrils, which were prepared as described above, were diluted in PBS to the final concentration 10 µg/ml and mixed with 10-fold dilutions of D-peptide compounds in Eppendorf tubes (starting concentration of D-peptide compounds: 10 µg/ml). The tubes were incubated for 2 h at 37°C. Next, samples were distributed onto the ELISA plate and kept for 2 h at 37°C. Plates were washed and incubated for 2 h at 37°C with the detection antibody Rabbit-a-fluorescein isothiocyanate-AP (Sigma; 1∶10′000 dilution) following the incubation overnight (ON) at RT with 1 mg/ml of phosphatase substrate (pNPP, Sigma). The absorbance signal was read at 405 nm wavelength using the Tecan plate reader (Tecan Group Ltd, Männedorf, Switzerland).
(§4) To verify the SPR results, ELISA was employed to assay the interaction of the ACI-80 derivatives ACI-80-Kϕ, ACI-81-Kϕ, ACI-82-Kϕ, ACI-83-Kϕ, ACI-84-Kϕ, ACI-85-Kϕ, ACI-86-Kϕ, ACI-87-Kϕ, [^19F]-ACI-87-Kϕ, ACI-88-Kϕ, [^19F]-ACI-88-Kϕ, ACI-89-Kϕ, [^19F]-ACI-89-Kϕ) with Aβ1–42 fibrils and Aβ peptide film in solution containing mostly monomers and smaller oligomers (Table 4). To avoid any bias by possible conformational influences the ELISA has been carried out in two versions, once with immobilized antibody and once with immobilized Aβ1–42 as described in the methods section. Both assays yielded similar results and confirmed each other. […] Panels A and B in Figure 2 show the results for binding to Aβ1–42 fibrils and panels C and D in Figure 2 show the results for binding to freshly prepared Aβ1–42 peptide film, which contains mostly monomeric Aβ. In Table 4, the performance of the peptides is expressed relative to that of ACI-80-Kϕ.

Aβ1–42 monomers = target: T2, Aβ1–42 monomers (Homo sapiens, UniProt P05067); experiment: ELISA, compound binding to Aβ1–42 peptide film (predominantly monomers); settings: 10 µg/ml compound; for binding value, binding Aβ1–42 monomers: optical density after pNPP incubation
T2 construct: Aβ1–42 peptide film was prepared from lyophilized powder (Bachem); purchased Bachem
Method: as §1, §2, §3, §4

Aβ1–42 fibrils [2] = target: T1, Aβ1–42 fibrils; experiment: Surface plasmon resonance (Biacore 1000), semi-quantitative binding to immobilized Aβ1–42 fibrils; settings: 50 µg/ml, PBS pH 7.4
Method: Aβ1–42 was dissolved in hexafluoroisopropanol (HFIP). After overnight incubation, HFIP was removed by evaporation. The Aβ1–42 film was dissolved in PBS buffer pH 7.4 to a concentration of 1 mg/ml and incubated for 7 days at 37°C. For the measurements, a Biacore 1000 (GE Healthcare) instrument was used. Aβ1–42 fibrils (6800 RU) were immobilized on a CM5 sensorchip (GE Healthcare) via amine coupling. The running and sample buffer was PBS, pH 7.4. To allow comparison between the ACI-80 compounds, but to avoid potential over-interpretation of the data by fitting multiple k on and k off values for a yet undefined number of different binding sites, only two values have been taken for further evaluation. Response units achieved under identical injection conditions allow comparison of binding strengths of the compounds. Dissociation rates among the compounds have been compared by measuring the remaining response units 60 s after end of injection as a measure for dissociation (k off). All measurements have been carried out using the same flow cells with identical concentrations and injection conditions. ACI-80-Kϕ derivatives were injected as analytes in a concentration of 50 µg/ml at a flow rate of 5 µl/min for 2 minutes at ambient temperature. The data were evaluated using BiaEvaluation 4.1. The interactions between Aβ1–42 and ACI-80-Kϕ derivatives are given in resonance units (RU) and in % of ACI-80-Kϕ response units. […] Aβ1–42 fibrils were immobilized on a Biacore sensor-chip as described in the methods section, and the interactions of the ϕ-labeled ACI-80 derivatives were measured and compared with original ACI-80-Kϕ. […] Therefore we decided for semi-quantitative comparison between all compounds only. The maximal responses in resonance units (RU) of the ϕ-labeled ACI-80 derivatives during the analyte injection and the remaining response 60 s after injection end (as a semi-quantitative measure for the dissociation rate), have been related to the respective values obtained from identical concentrations of ACI-80-Kϕ in percent.

[3] = target: T3, Aβ plaques in brain sections of transgenic APP (V717I) x PS1 (A246E) mice (Homo sapiens, UniProt P05067); experiment: Ex vivo staining of mouse brain slices by FITC labeled compounds; settings: 0.01 mg/ml ϕ-labeled compound, 2 h; 10 µm cryostat sections; fluorescence microscopy
T3 construct: triple image overlay of respective stains reveal that the ϕ-compounds identify plaques; from tissue; host or cells: brain cryosections of APP (V717I) x PS1 (A246E) transgenic mice
Method: In vitro tissue section staining was performed according to previously described protocols with slight modifications. Mouse brains were obtained from male transgenic (tg) APP (London mutation V717l) x PS1 (A246E) mice aged 13–21 months and from female wild type (wt) mice aged 9–10 months. The mice were anesthetized and transcardially perfused with saline. The brains were removed and snap frozen. 10 µm thick sagittal cryostat sections through the whole mouse brain were produced and mounted onto glass slides. ϕ-labeled compounds were applied to investigate binding. Thus, the slides were thawed, washed in PBS and fixed in 4% paraformaldehyde (20 min at RT) just before incubation with ϕ-labeled compounds. One series of sections was treated only with fluorescent compounds (0.01 mg/ml, incubation time 2 h) while another series of sections were incubated with anti-Aβ antibody 6E10 at 1∶500 dilution (SIG-39320, Covance; final antibody concentration was 2 µg/ml) in addition to ϕ-labeled compounds (0.01 mg/ml). The slices were washed in PBS. The sections incubated with ϕ-labeled compound and 6E10 antibody were further incubated for 2 h at RT with Goat-anti-Mouse IgG1– AlexaFluor 555 (A21127, Invitrogen, 1∶1000 dilution) and washed with PBS. Finally, all sections were counterstained with 4’–6-Diamidino-2-phenylindole (DAPI, 32670, Sigma, incubation 5 min at RT) for the visualization of cell nuclei. The slides were mounted using Prolong Gold Antifade mounting medium (P36930, Invitrogen) and coverslipped.
The tissues were analyzed using a fluorescent Zeiss Axioscope 2 Plus microscope using the AxioVision 4 image analysis software.
A further series of slices was stained using a primary anti-fluorescein isothiocyanate antibody combined with alkaline phosphatase reaction for visualization of ϕ-labeled peptides. Briefly, the sections were treated with blocking solution (10% normal goat serum (NGS), 0.25% Triton X-100 in PBS for 1 h at RT) and incubated with primary antibody (rabbit-anti-FITC; Invitrogen) at a dilution of 1∶500. The sections were then washed and incubated for 2 h at RT with the secondary antibody goat-anti-rabbit-alkaline phosphatase (Sigma) at a dilution of 1∶100. After washing, the slides were incubated with BCIP/NBT substrate (Sigma) for 3 min, washed, dehydrated and mounted using Eukitt mounting medium.

[4] = 10 µg/ml compound, value of one single experiment only
[5] = value of one single experiment only

| Substance | ELISA binding to Aβ1–42 (Aβ1–42 fibrils [1]) | binding value, binding Aβ1–42 fibrils (Aβ1–42 fibrils [1]; [4]) | binding value, binding Aβ1–42 monomers (Aβ1–42 monomers; [5]) | SPR response as compared to ACI-80-Kϕ (Aβ1–42 fibrils [2]) | staining / recognition of Aβ plaques [3] | off-rate based on remaining response 60 s after injection end (Aβ1–42 fibrils [2]) | % binding relative to ACI-80-Kϕ, Aβ1–42 fibrils (Aβ1–42 fibrils [1]; 10 µg/ml compound, ACI-80-Kϕ = 100) | binding value, binding Aβ1–42 fibrils (Aβ1–42 fibrils [1]; 10 µg/ml compound, average of two or three experiments) | % binding relative to ACI-80-Kϕ, Aβ1–42 monomers (Aβ1–42 monomers; ACI-80-Kϕ = 100) | binding value, binding Aβ1–42 monomers (Aβ1–42 monomers; average of two or three experiments) |
| --- | --- | --- | --- | --- | --- | --- | --- | --- | --- | --- |
| QSHYRHISPAQKK[^19F]ϕ [[^19F]-ACI-87-Kϕ, fluorinated ϕ-labeled ACI-87] | bound well to Aβ1–42 fibrils | *1.26 | *0.86 | decreased response in comparison to the compound without label | readily recognized amyloid plaques |  |  |  |  |  |
| SHYRHISPAQKK[^19F]ϕ [[^19F]-ACI-88-Kϕ, fluorinated ϕ-labeled ACI-88] | bound well to Aβ1–42 fibrils | *1.76 | *1.05 |  | readily recognized amyloid plaques | slowest off-rate of all tested compounds |  |  |  |  |
| ZSHYRHISPAQVKϕ [ACI-81-Kϕ, ϕ-labeled ACI-80 derivative, Q1Z] |  |  |  | not significantly increased |  |  | 22% | 0.20 | 27% | 0.13 |
